Results: the NIST ThermoML archive (doi:10.1021/je049895b)

Assay: xn = mol fraction of the nth substance listed
Details: 101.33 kPa, Liquid; for viscosity: Capillary tube (Ostwald / Ubbelohde) method

CCOC(=O)OCC [diethyl carbonate] + CC1CCCCC1
Details | speed of sound, 293.15 K [m/s] | speed of sound, 298.15 K [m/s] | speed of sound, 303.15 K [m/s] | speed of sound, 308.15 K [m/s] | speed of sound, 313.15 K [m/s] | viscosity, 293.15 K [mPa·s] | viscosity, 298.15 K [mPa·s] | viscosity, 303.15 K [mPa·s] | viscosity, 308.15 K [mPa·s] | viscosity, 313.15 K [mPa·s]
x1 = 0.0473 | 1229 | 1207 | 1185 | 1164 | 1142 | 0.709 | 0.662 | 0.621 | 0.583 | 0.548
x1 = 0.0978 | 1222 | 1201 | 1179 | 1157 | 1136 | 0.692 | 0.647 | 0.607 | 0.57 | 0.537
x1 = 0.1985 | 1211 | 1189 | 1168 | 1146 | 1125 | 0.678 | 0.633 | 0.593 | 0.558 | 0.525
x1 = 0.2968 | 1203 | 1181 | 1160 | 1138 | 1117 | 0.67 | 0.627 | 0.588 | 0.553 | 0.521
x1 = 0.3924 | 1196 | 1175 | 1154 | 1132 | 1111 | 0.672 | 0.628 | 0.589 | 0.554 | 0.522
x1 = 0.4993 | 1192 | 1171 | 1149 | 1128 | 1107 | 0.68 | 0.635 | 0.596 | 0.561 | 0.529
x1 = 0.5999 | 1189 | 1168 | 1147 | 1126 | 1105 | 0.695 | 0.649 | 0.609 | 0.572 | 0.539
x1 = 0.6985 | 1189 | 1168 | 1147 | 1126 | 1106 | 0.709 | 0.663 | 0.622 | 0.584 | 0.55
x1 = 0.7988 | 1191 | 1170 | 1149 | 1128 | 1108 | 0.732 | 0.684 | 0.642 | 0.603 | 0.568
x1 = 0.8996 | 1194 | 1173 | 1152 | 1132 | 1112 | 0.762 | 0.711 | 0.666 | 0.625 | 0.588
x1 = 0.9509 | 1196 | 1175 | 1155 | 1134 | 1114 | 0.787 | 0.735 | 0.687 | 0.645 | 0.607
x1 = 1 | 1198 | 1177 | 1157 | 1136 | 1116 | 0.809 | 0.75 | 0.702 | 0.658 | 0.618
